This is an account of results in ChEMBL document CHEMBL4725481, “Novel Betulinic Acid-Nucleoside Hybrids with Potent Anti-HIV Activity” (ACS Med Chem Lett, 2020).

Data set [1] in a line: Antiviral activity against HIV 1 NL4-3 infected in human MT4 cells assessed as reduction in viral replication and measured on day 3 post infection by Nano-glo luciferase reporter assay. Format: functional, cell-based. (In general: A reporter such as luciferase makes a cellular process visible.)
Data set [2] in a line: Cytotoxicity against human MT4 cells treated for 3 days measured by Celltiter-glo luminescent assay. The settings on record: time 3 day. Format: cell-based.
Data set [3] in a line: Selectivity index, ratio of CC50 for human MT4 cells to EC50 for antiviral activity against HIV1 NL4-3. The format is toxicity.
Where [4] appears, read: Homo sapiens, NL4-3, MT4, 72 h, read-out: IC50.

As a reminder, the IC50 is the concentration that gives 50% inhibition. The term CC50 denotes the concentration giving 50% cytotoxicity. The low end stands for greater toxicity to the cells, the high end for lower toxicity to the cells. With `C=C(C)[C@@H]1CC[C@]2(C(=O)OC)CC[C@]3(C)[C@H](CC[C@@H]4[C@@]5(C)C[C@@H](Cc6cn([C@]7(CO)O[C@@H](n8ccc(N)nc8=O)[C@@H](F)[C@@H]7O)nn6)[C@H](O)C(C)(C)[C@@H]5CC[C@]43C)[C@@H]12`, the half-inhibitory concentration (IC50) in data set [1] (setting [4]) was 48 nM. In addition, in data set [2], the half-maximal cytotoxic concentration (CC50) at 72 h is above 25200 nM. The selectivity ratio in data set [3] is above 525.

For `Cc1cn([C@H]2C[C@H](N=[N+]=[N-])[C@@H](CO)O2)c(=O)[nH]c1=O` [ZIDOVUDINE], the IC50 in data set [1] (setting [4]) stood at 18 nM. The same compound gave a cytotoxic concentration (CC50) at 72 h in data set [2] above 370 nM. Further, in data set [3], the selectivity ratio was above 20.6.

Consider `C=C(C)[C@@H]1CC[C@]2(C(=O)OC)CC[C@]3(C)[C@H](CC[C@@H]4[C@@]5(C)C[C@@H](Cc6cn([C@H]7C[C@H](n8cc(C)c(O)nc8=O)O[C@@H]7CO)nn6)C(=O)C(C)(C)[C@@H]5CC[C@]43C)[C@@H]12`, for which the IC50 entry in data set [1] (mt4) is “Not Active”.

In the case of `C=C(C)[C@@H]1CC[C@]2(C(=O)O)CC[C@]3(C)[C@H](CC[C@@H]4[C@@]5(C)CC[C@H](OC(=O)CC(C)(C)C(=O)O)C(C)(C)[C@@H]5CC[C@]43C)[C@@H]12` [BEVIRIMAT], the half-maximal inhibitory concentration (IC50) in data set [1] (setting [4]) was above 21 nM. The CC50 at 72 h in data set [2] was above 6840 nM. Further, in data set [3], the selectivity ratio was above 326.

For `C=C(C)[C@@H]1CC[C@]2(C(=O)O)CC[C@]3(C)[C@H](CC[C@@H]4[C@@]5(C)C[C@@H](Cc6cn([C@H]7C[C@H](n8cc(C)c(O)nc8=O)O[C@@H]7CO)nn6)[C@H](O)C(C)(C)[C@@H]5CC[C@]43C)[C@@H]12`, in data set [1] (setting [4]), the IC50 is above 1300 nM. This compound had a CC50 at 72 h in data set [2] above 1300 nM.

In the case of `C=C(C)[C@@H]1CC[C@]2(C(=O)OC)CC[C@]3(C)[C@H](CC[C@@H]4[C@@]5(C)C[C@@H](Cc6cn([C@H]7C[C@H](n8cc(C)c(O)nc8=O)O[C@@H]7CO)nn6)[C@H](O)C(C)(C)[C@@H]5CC[C@]43C)[C@@H]12`, the IC50 in data set [1] (setting [4]) was above 1300 nM. The same compound came in with a CC50 at 72 h in data set [2] above 1300 nM.

With `C=C(C)[C@@H]1CC[C@]2(C(=O)OC)CC[C@]3(C)[C@H](CC[C@@H]4[C@@]5(C)C[C@@H](Cc6cn([C@]7(CO)O[C@@H](n8ccc(O)nc8=O)[C@@H](F)[C@@H]7O)nn6)C(=O)C(C)(C)[C@@H]5CC[C@]43C)[C@@H]12`, the IC50 entry in data set [1] (mt4) is listed as “Not Active”.

On to `[N-]=[N+]=N[C@]1(CO)O[C@@H](n2ccc(=O)[nH]c2=O)[C@@H](F)[C@@H]1O`, for which the IC50 in data set [1] (setting [4]) was found to be 219 nM. The compound further came in with a cytotoxic concentration (CC50) at 72 h in data set [2] above 3480 nM. The selectivity ratio in data set [3] is above 16.

Turning to `C=C(C)[C@@H]1CC[C@]2(C(=O)OC)CC[C@]3(C)[C@H](CC[C@@H]4[C@@]5(C)C[C@@H](Cc6cn([C@]7(CO)O[C@@H](n8ccc(O)nc8=O)[C@@H](F)[C@@H]7O)nn6)[C@H](O)C(C)(C)[C@@H]5CC[C@]43C)[C@@H]12`, the IC50 result in data set [1] (mt4) is “Not Active”.

In the case of `C=C(C)[C@@H]1CC[C@]2(C(=O)O)CC[C@]3(C)[C@H](CC[C@@H]4[C@@]5(C)C[C@@H](Cc6cn([C@]7(CO)O[C@@H](n8ccc(O)nc8=O)[C@@H](F)[C@@H]7O)nn6)[C@H](O)C(C)(C)[C@@H]5CC[C@]43C)[C@@H]12`, in data set [1] (setting [4]), the IC50 is 20 nM. The compound further gave a CC50 at 72 h in data set [2] of 23800 nM. In addition, in data set [3], the selectivity ratio was found to be 1190.

Turning to `[N-]=[N+]=N[C@]1(CO)O[C@@H](n2ccc(N)nc2=O)[C@@H](F)[C@@H]1O` [RO-0622], in data set [1] (setting [4]), the 50% inhibitory concentration (IC50) came to 0.262 nM. In addition, the cytotoxic concentration (CC50) at 72 h in data set [2] was 99.6 nM. In data set [3], the selectivity ratio came to 380.

As to `C=C(C)[C@@H]1CC[C@]2(C(=O)O)CC[C@]3(C)[C@H](CC[C@@H]4[C@@]5(C)C[C@@H](Cc6cn([C@]7(CO)O[C@@H](n8ccc(N)nc8=O)[C@@H](F)[C@@H]7O)nn6)[C@H](O)C(C)(C)[C@@H]5CC[C@]43C)[C@@H]12`, in data set [1] (setting [4]), the IC50 was found to be 7.8 nM. In addition, the CC50 at 72 h in data set [2] amounted to 9600 nM. The selectivity ratio in data set [3] came to 1230.

As to `C=C(C)[C@@H]1CC[C@]2(C(=O)OC)CC[C@]3(C)[C@H](CC[C@@H]4[C@@]5(C)C[C@@H](Cc6cn([C@]7(CO)O[C@@H](n8ccc(N)nc8=O)[C@@H](F)[C@@H]7O)nn6)C(=O)C(C)(C)[C@@H]5CC[C@]43C)[C@@H]12`, in data set [1] (setting [4]), the IC50 came to 97 nM. In data set [2], the CC50 at 72 h was above 25200 nM. The selectivity ratio in data set [3] was above 260.
